{"source": "patent US20080107619A1", "about": "“Carbohydrate based cellulase inhibitors as feeding stimulants in termites” (University of Florida Research Foundation, Inc., priority 2006, published 2008)", "key": {"[1]": {"target": "T1, 6A cellobiohydrolase (exoglucanase) (Trichoderma reesei, UniProt P07987)", "T1 sequence (P07987 25-471)": "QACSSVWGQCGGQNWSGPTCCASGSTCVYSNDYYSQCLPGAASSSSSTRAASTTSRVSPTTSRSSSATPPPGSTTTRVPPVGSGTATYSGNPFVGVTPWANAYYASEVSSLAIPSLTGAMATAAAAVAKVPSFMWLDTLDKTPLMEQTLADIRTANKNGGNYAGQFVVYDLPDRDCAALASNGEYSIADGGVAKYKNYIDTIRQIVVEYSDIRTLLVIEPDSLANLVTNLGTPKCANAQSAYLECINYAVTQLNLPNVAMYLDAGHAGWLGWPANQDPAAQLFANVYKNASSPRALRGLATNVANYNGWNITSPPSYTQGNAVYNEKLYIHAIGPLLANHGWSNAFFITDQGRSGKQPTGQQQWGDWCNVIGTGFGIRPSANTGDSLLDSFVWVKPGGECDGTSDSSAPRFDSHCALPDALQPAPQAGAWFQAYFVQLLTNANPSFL", "conditions": "non-competitive inhibition; Vonhoff et al.; read-out: I50; cited from earlier work"}, "[2]": {"system": "R. flavipes worker termites", "assay": "No-choice Petri dish in vivo feeding bioassay (feeding and mortality, 24 days)", "conditions": "for Average Feeding in mg per Live Termite (std. err.) days 1-8 / Average Feeding in mg per Live Termite (std. err.) days 9-16 / Average Feeding in mg per Live Termite (std. err.) days 17-24 / Normalized Avg. Totals: 1st ROUND (lab colony); for Normalized Avg. Totals: relative to control [0] average", "experimental": "R. flavipes colonies were collected from the University of Florida campus during spring and summer 2006. Colonies were maintained in sealed plastic boxes (30×24×10 cm) at 22±1° C. and 69±1% RH. Colonies were maintained without soil and provisioned with moist brown paper towels and wood shims. Colonies that were acclimated under the above conditions for <2 months are referred to as “field colonies”, while those held for >6 months are referred to as “lab colonies”. Unless otherwise stated, all studies reported here were run with lab colonies.\nTwo different termite colonies were used. A lab colony was used in bioassays that tested the effects of CBI and FMG; this was the same colony used in cellulase optimization studies, cellulase distribution studies, and for […] determination. The other colony was a field colony, which was used to repeat the FMG assay along side FMCB. The no-choice feeding bioassay was derived from a previously-developed and slightly modified caste differentiation assay reported by M. E. Scharf, et al. in “Caste differentiation responses of two sympatric Reticulitermes termite species to juvenile hormone homologs and synthetic juvenoids in two laboratory assays.” Insectes Soc. […] Acad. Sci. USA, 103 (2006) 4499-504.\nPrior to treatment, paper disks 30 were weighed. Treatments and controls were held in complete darkness at approximately 26±1° C. and 69±1% RH. The inhibitor concentrations tested were 75, 50, 25, 10, 5, 1, 0.5, and 0.1 mM (approximately […] wt/wt). For each inhibitor, paper disks were treated with 50 μl of a given concentration. Control disks received 50 μl methanol alone. Treated papers were allowed to dry in a fume hood for 30 min before placing in dishes, wetting with 25 μl water, and adding 15 termites.\nTermite feeding on the filter papers was readily observable and quantifiable from the bioassays. Average feeding through the entire bioassay was summed within each replicate and calculated as a percentage of feeding relative to untreated controls, then averaged across replicates.\nThe experimental design consisted of three replicate dishes per concentration. All assays were carried out for a total of 24 days. Termite mortality and filter paper moisture were monitored every 4th day. Every 8th day, old paper disks were replaced with new ones. These new filter paper disks were treated with identical inhibitor concentrations. The removed filter paper disks 30, showing the results of termite feeding (FIG. 6), were dried and re-weighed. At the end of each assay, data were summarized as cumulative feeding per live termite and cumulative termite mortality. Data were analyzed by non-parametric t-tests (p<0.05) with commercially-available software for use in statistical analysis, designed by SAS Institute, Cary, N.C.\nFIGS. 7A-7F provide graphic data on in vivo feeding bioassays conducted with the carbohydrate-based cellulase inhibitors to assess the impact on termite feeding and survivorship. Feeding results are expressed as the cumulative percent of untreated controls through 24 days. Mortality results are expressed as percent mortality after 24 days. […] Error bars represent standard error of the mean."}}, "note": "Entries after “also recorded” stand apart in the source; their conditions may differ."}
{"smiles": "OC[C@@H]1[C@@H](O[C@@H]2O[C@H](CO)[C@@H](O)[C@H](O)[C@H]2O)[C@H](O)[C@@H](O)c2nccn21", "note": "[CBI, cellobioimidazole]", "values": [{"measurement": "IC50", "setting": "[1]", "result": 1000, "unit": "nM"}, {"measurement": "Average Feeding in mg per Live Termite (std. err.) days 1-8", "setting": "[2]; 0.1 mM test conc.", "result": "0.44 (0.04) mg per Live Termite"}, {"measurement": "Average Feeding in mg per Live Termite (std. err.) days 9-16", "setting": "[2]; 0.1 mM test conc.", "result": "0.42 (0.11) mg per Live Termite"}, {"measurement": "Average Feeding in mg per Live Termite (std. err.) days 17-24", "setting": "[2]; 0.1 mM test conc.", "result": "0.45 (0.04) mg per Live Termite"}, {"measurement": "Normalized Avg. Totals", "setting": "[2]; 0.1 mM test conc.", "result": 1.98}, {"measurement": "Average Feeding in mg per Live Termite (std. err.) days 1-8", "setting": "[2]; 0.5 mM test conc.", "result": "0.45 (0.03) mg per Live Termite"}, {"measurement": "Average Feeding in mg per Live Termite (std. err.) days 9-16", "setting": "[2]; 0.5 mM test conc.", "result": "0.51 (0.06) mg per Live Termite"}, {"measurement": "Average Feeding in mg per Live Termite (std. err.) days 17-24", "setting": "[2]; 0.5 mM test conc.", "result": "0.33 (0.04) mg per Live Termite"}, {"measurement": "Normalized Avg. Totals", "setting": "[2]; 0.5 mM test conc.", "result": 1.02}, {"measurement": "Average Feeding in mg per Live Termite (std. err.) days 1-8", "setting": "[2]; 1 mM test conc.", "result": "0.49 (0.12) mg per Live Termite"}, {"measurement": "Average Feeding in mg per Live Termite (std. err.) days 9-16", "setting": "[2]; 1 mM test conc.", "result": "0.53 (0.03) mg per Live Termite"}, {"measurement": "Average Feeding in mg per Live Termite (std. err.) days 17-24", "setting": "[2]; 1 mM test conc.", "result": "0.35 (0.04) mg per Live Termite"}, {"measurement": "Normalized Avg. Totals", "setting": "[2]; 1 mM test conc.", "result": 1.05}, {"measurement": "Average Feeding in mg per Live Termite (std. err.) days 1-8", "setting": "[2]; 5 mM test conc.", "result": "0.66 (0.05) mg per Live Termite"}, {"measurement": "Average Feeding in mg per Live Termite (std. err.) days 9-16", "setting": "[2]; 5 mM test conc.", "result": "0.55 (0.11) mg per Live Termite"}, {"measurement": "Average Feeding in mg per Live Termite (std. err.) days 17-24", "setting": "[2]; 5 mM test conc.", "result": "0.40 (0.89) mg per Live Termite"}, {"measurement": "Normalized Avg. Totals", "setting": "[2]; 5 mM test conc.", "result": 1.34}, {"measurement": "Average Feeding in mg per Live Termite (std. err.) days 1-8", "setting": "[2]; 10 mM test conc.", "result": "0.38 (0.05) mg per Live Termite"}, {"measurement": "Average Feeding in mg per Live Termite (std. err.) days 9-16", "setting": "[2]; 10 mM test conc.", "result": "0.43 (0.05) mg per Live Termite"}, {"measurement": "Average Feeding in mg per Live Termite (std. err.) days 17-24", "setting": "[2]; 10 mM test conc.", "result": "0.33 (0.05) mg per Live Termite"}, {"measurement": "Normalized Avg. Totals", "setting": "[2]; 10 mM test conc.", "result": 1.03}, {"measurement": "Average Feeding in mg per Live Termite (std. err.) days 1-8", "setting": "[2]; 25 mM test conc.", "result": "0.23 (0.01) mg per Live Termite"}, {"measurement": "Average Feeding in mg per Live Termite (std. err.) days 9-16", "setting": "[2]; 25 mM test conc.", "result": "0.47 (0.44) mg per Live Termite"}, {"measurement": "Average Feeding in mg per Live Termite (std. err.) days 17-24", "setting": "[2]; 25 mM test conc.", "result": "0.39 (0.01) mg per Live Termite"}, {"measurement": "Normalized Avg. Totals", "setting": "[2]; 25 mM test conc.", "result": 0.95}, {"measurement": "Average Feeding in mg per Live Termite (std. err.) days 1-8", "setting": "[2]; 50 mM test conc.", "result": "0.17 (0.03) mg per Live Termite"}, {"measurement": "Average Feeding in mg per Live Termite (std. err.) days 9-16", "setting": "[2]; 50 mM test conc.", "result": "0.41 (0.05) mg per Live Termite"}, {"measurement": "Average Feeding in mg per Live Termite (std. err.) days 17-24", "setting": "[2]; 50 mM test conc.", "result": "0.38 (0.03) mg per Live Termite"}, {"measurement": "Normalized Avg. Totals", "setting": "[2]; 50 mM test conc.", "result": 0.85}, {"measurement": "highest mortality observed", "setting": "[2]; 0.05 and 0.2% concentrations, after 24 days, FIG. 10B", "result": "around 20%"}, {"measurement": "Average Feeding in mg per Live Termite (std. err.) days 1-8", "setting": "[2]; 75 mM test conc.", "result": "0.16 (0.01) mg per Live Termite"}, {"measurement": "Average Feeding in mg per Live Termite (std. err.) days 9-16", "setting": "[2]; 75 mM test conc.", "result": "0.24 (0.05) mg per Live Termite"}, {"measurement": "Average Feeding in mg per Live Termite (std. err.) days 17-24", "setting": "[2]; 75 mM test conc.", "result": "0.27 (0.01) mg per Live Termite"}, {"measurement": "Normalized Avg. Totals", "setting": "[2]; 75 mM test conc.", "result": 0.59}, {"measurement": "mortality", "setting": "[2]; 1-5 mM (0.05-0.2% wt/wt), after 24 days", "result": "approximately 20%"}, {"measurement": "Effect on feeding (cumulative percent of untreated controls through 24 days)", "setting": "[2]; across tested concentrations 0.1-75 mM, FIGS. 7A-7C, 8A-8B", "result": "both inhibitory and stimulatory effects, depending on concentration; also recorded: either inhibitory or stimulatory to feeding, depending on concentration"}, {"measurement": "cumulative termite mortality (comparison between inhibitors)", "setting": "[2]; after 24 days, FIGS. 7D-7F, 10A-10B", "result": "substantially greater than the mortality caused by FMG"}, {"measurement": "mortality, one replicate", "setting": "[2]; one replicate of the 0.05% concentration, after 24 days", "result": "over 30%"}]}
